These results are taken from patent US10987349B2, “Antitumor agent and bromodomain inhibitor” (FUJIFILM Corporation, priority 2016, dated 2021).

One assay has as its target T1, BRD4 BD1 (Homo sapiens, UniProt O60885).
T1 construct: BRD2 BD1, BRD3 BD1 and BRD4 BD1 (Cisbio); purchased Cisbio
Put plainly: Binding assay, BRD4 BD1 to acetylated histone H4 Peptide-Biotin (EPIgeneous Binding Domain Kit A). Particulars: test compound at 300 nmol/L; for inhibition at 0.3 µM: read-out: Binding inhibition percentage BRD4 BD1. The procedure:
(§1) BRD2 BD1, BRD3 BD1 and BRD4 BD1 (Cisbio), [Lys(Ac)5/8/12/16]-Histone H4(1-25)-GSGSK (Biotin) (hereinafter referred to as “Peptide-Biotin,” AnaSpec), and EPIgeneous (registered trademark) Binding Domain Kit A (Cisbio) were used to carry out an assay. That is to say, per well, 4 μL of BRD2 BD1, BRD3 BD1 or BRD4 BD1, which was adjusted to 20 nmol/L with Diluent buffer; 4 μL of 25 nmol/L Peptide-Biotin; 2 μL of Dilution buffer (Cisbio) containing dimethyl sulfoxide (DMSO) or a test compound that was serially diluted with DMSO; 5 μL of 2.5 nmol/L Streptavidin-d2; and 5 μL of Anti-Gst-Eu+^3+ Cryptate Conjugate 50-fold diluted with Detection Buffer were added to a 384-well plate (Corning).
(§2) The obtained mixture was left at rest at room temperature for 20 hours, and thereafter, the fluoresence intensity at 665 nm and 620 nm was measured using Envision plate reader (Perkin Elmer), so that the inhibition percentage (%) of the test compound against the binding of a bromodomain in a bromodomain-containing protein to Peptide-Biotin was calculated. Binding inhibition percentage (%)=[1−{(fluorescence intensity at 665 nm of test compound−added well)/(fluorescence intensity at 620 nm of test compound−added well)}/{(fluorescence intensity at 665 nm of DMSO−added well)/(fluorescence intensity at 665 nm of DMSO−added well)}]×100
(§3) Moreover, using Graphpad prism 5 (GraphPad software), 50% inhibitory concentration [IC50 (nmol/L)] was calculated according to a non-linear regression analysis (log (inhibitor) vs. response—Variable slope (four parameters)).
(§4) Regarding other test compounds, each compound was diluted with DMSO to a final concentration of 300 nmol/L by the same method as that described above, and the binding inhibition percentage (%) of each test compound at 300 nmol/L against the binding of bromodomain in a bromodomain-containing protein to acetylated histone was calculated.

The target in another assay is T2, BRD2 BD1 (Homo sapiens, UniProt P25440).
T2 construct: BRD2 BD1, BRD3 BD1 and BRD4 BD1 (Cisbio); purchased Cisbio
The assay is described as follows: Binding assay, BRD2 BD1 to acetylated histone H4 Peptide-Biotin (EPIgeneous Binding Domain Kit A). The note with it: test compound at 300 nmol/L; for inhibition at 0.3 µM: read-out: Binding inhibition percentage BRD2 BD1. The procedure:
as §1, §2, §3, §4

The target of the next assay is T3, BRD3 BD1 (Homo sapiens, UniProt Q15059).
T3 construct: BRD2 BD1, BRD3 BD1 and BRD4 BD1 (Cisbio); purchased Cisbio
Put plainly: Binding assay, BRD3 BD1 to acetylated histone H4 Peptide-Biotin (EPIgeneous Binding Domain Kit A). Particulars: test compound at 300 nmol/L; for inhibition at 0.3 µM: read-out: Binding inhibition percentage BRD3 BD1. The procedure:
as §1, §2, §3, §4

In the next assay the target is T4, BRD4 BD2 (Homo sapiens, UniProt O60885).
T4 construct: BRD2 BD2, BRD3 BD2 and BRD4 BD2 (Cisbio); purchased Cisbio
Put plainly: Binding assay, BRD4 BD2 to acetylated histone H4 Peptide-Biotin (EPIgeneous Binding Domain Kit B). The note with it: test compound at 300 nmol/L; for inhibition at 0.3 µM: read-out: Binding inhibition percentage BRD4 BD2. As for the experimental part: (§5) Moreover, BRD2 BD2, BRD3 BD2 and BRD4 BD2 (Cisbio), Peptide-Biotin (AnaSpec), and EPIgeneous (registered trademark) Binding Domain Kit B (Cisbio) were used to carry out an assay. That is, per well, 4 μL of BRD2 BD2, BRD3 BD2 or BRD4 BD2, which was adjusted to 20 nmol/L with Diluent buffer; 4 μL of 250 nmol/L Peptide-Biotin; 2 μL of Dilution buffer (Cisbio) containing DMSO or a test compound that was serially diluted with DMSO; 5 μL of 25 nmol/L Streptavidin-XL665; 5 μL of Anti-Gst-Eu+^3+ Cryptate Conjugate 50-fold diluted with Detection Buffer were added to a 384-well plate (Corning).
as §2, §3, §4

The target in another assay is T5, BRD2 BD2 (Homo sapiens, UniProt P25440).
T5 construct: BRD2 BD2, BRD3 BD2 and BRD4 BD2 (Cisbio); purchased Cisbio
The assay is described as follows: Binding assay, BRD2 BD2 to acetylated histone H4 Peptide-Biotin (EPIgeneous Binding Domain Kit B). The note with it: test compound at 300 nmol/L; for inhibition at 0.3 µM: read-out: Binding inhibition percentage BRD2 BD2. As for the experimental part: as §5, §2, §3, §4

The next assay addresses T6, BRD3 BD2 (Homo sapiens, UniProt Q15059).
T6 construct: BRD2 BD2, BRD3 BD2 and BRD4 BD2 (Cisbio); purchased Cisbio
Put plainly: Binding assay, BRD3 BD2 to acetylated histone H4 Peptide-Biotin (EPIgeneous Binding Domain Kit B). Particulars: test compound at 300 nmol/L; for inhibition at 0.3 µM: read-out: Binding inhibition percentage BRD3 BD2. As for the experimental part: as §5, §2, §3, §4

SMILES strings stand for the structures.

T3 sequence (Q15059 34-140 limits assumed): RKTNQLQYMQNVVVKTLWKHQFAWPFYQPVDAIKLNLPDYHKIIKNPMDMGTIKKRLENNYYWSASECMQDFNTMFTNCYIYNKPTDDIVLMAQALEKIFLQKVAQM
T2 sequence (P25440 74-180 limits assumed): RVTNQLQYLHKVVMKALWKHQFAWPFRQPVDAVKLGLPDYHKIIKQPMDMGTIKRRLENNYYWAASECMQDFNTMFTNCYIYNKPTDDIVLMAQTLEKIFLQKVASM
T6 sequence (Q15059 306-415 limits assumed): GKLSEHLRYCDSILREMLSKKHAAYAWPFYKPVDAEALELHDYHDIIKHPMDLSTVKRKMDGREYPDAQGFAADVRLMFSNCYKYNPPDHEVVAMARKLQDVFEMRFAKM
T5 sequence (P25440 344-453 limits assumed): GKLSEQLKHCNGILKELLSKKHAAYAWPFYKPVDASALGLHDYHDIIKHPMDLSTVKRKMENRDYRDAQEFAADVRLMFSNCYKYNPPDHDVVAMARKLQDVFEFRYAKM

A word on the inhibition: it is the percentage by which the read-out fell short of the control. `CCn1c(=O)cc(C2CC2)c2cc(-n3c(-c4ccc(C(F)(F)F)cc4)c[nH]c3=O)ccc21` [Example 268, 4-cyclopropyl-1-ethyl-6-(2-oxo-5-(4-(trifluoromethyl)phenyl)-2,3-dihydro-1H-imidazol-1-yl)quinolin-2(1H)-one]: the inhibition at 0.3 µM came out at 73% at BRD4 BD1; 48% at BRD2 BD1; 62% at BRD3 BD1; 87% at BRD4 BD2; 86% on BRD2 BD2; 92% on BRD3 BD2.
For the compound `CCn1c(=O)cc(C2CC2)c2cc(-n3c(-c4ccc(Cl)cc4)cn(C)c3=O)ccc21` [Example 269, 6-(5-(4-chlorophenyl)-3-methyl-2-oxo-2,3-dihydro-1H-imidazol-1-yl)-4-cyclopropyl-1-ethylquinolin-2(1H)-one], the inhibition at 0.3 µM on BRD4 BD1 amounted to 71%; at BRD2 BD1, 36%; on BRD3 BD1 it was 58%; on BRD4 BD2, 87%; on BRD2 BD2, 85%; at BRD3 BD2, 92%.
`CCn1c(=O)cc(N2CCOCC2)c2cc(-n3c(-c4ccc(C(F)(F)F)cc4)cn(C)c3=O)ccc21` [Example 270, 1-ethyl-6-(3-methyl-2-oxo-5-(4-(trifluoromethyl)phenyl)-2,3-dihydro-1H-imidazol-1-yl)-4-(morpholin-4-yl)quinolin-2(1H)-one]: the inhibition at 0.3 µM turned out to be 94% on BRD4 BD1; 87% at BRD2 BD1; 94% at BRD3 BD1; 89% at BRD4 BD2; 89% on BRD2 BD2; 91% on BRD3 BD2.
As to `CCn1c(=O)cc(C2CC2)c2cc(-n3c(-c4ccc(Cl)cc4)c[nH]c3=O)ccc21` [Example 271, 6-(5-(4-chlorophenyl)-2-oxo-2,3-dihydro-1H-imidazol-1-yl)-4-cyclopropyl-1-ethylquinolin-2(1H)-one], the inhibition at 0.3 µM at BRD4 BD1 turned out to be 77%; at BRD2 BD1, 60%; on BRD3 BD1, 72%; at BRD4 BD2 it was 88%; at BRD2 BD2 it was 88%; on BRD3 BD2 it was 92%.
For `CCn1c(=O)cc(N2CCOCC2)c2cc(-n3c(-c4ccc(C(F)(F)F)cc4)c[nH]c3=O)ccc21` [Example 272, 1-ethyl-6-(2-oxo-5-(4-(trifluoromethyl)phenyl)-2,3-dihydro-1H-imidazol-1-yl)-4-(morpholin-4-yl)quinolin-2(1H)-one], the inhibition at 0.3 µM worked out at 93% on BRD4 BD1; 87% at BRD2 BD1; 93% on BRD3 BD1; 90% on BRD4 BD2; 89% at BRD2 BD2; 91% on BRD3 BD2.
Turning to `CCn1c(=O)cc(N2CCOCC2)c2cc(-n3c(-c4ccc(C)cc4)cn(C)c3=O)ccc21` [Example 273, 1-ethyl-6-(3-methyl-5-(4-methylphenyl)-2-oxo-2,3-dihydro-1H-imidazol-1-yl)-4-(morpholin-4-yl)quinolin-2(1H)-one], the inhibition at 0.3 µM on BRD4 BD1 was 94%; at BRD2 BD1, 93%; on BRD3 BD1, 94%; at BRD4 BD2, 89%; at BRD2 BD2 it was 90%; on BRD3 BD2, 93%.
For `CCn1c(=O)cc(C2CC2)c2cc(-c3cccnc3-c3ccccc3)ccc21` [Example 278, 4-cyclopropyl-1-ethyl-6-(2-phenylpyridin-3-yl)quinolin-2(1H)-one], the inhibition at 0.3 µM on BRD4 BD1 worked out at 93%; at BRD2 BD1 it was 83%; on BRD3 BD1, 94%; on BRD4 BD2, 89%; on BRD2 BD2, 89%; on BRD3 BD2, 91%.
`CCn1c(=O)cc(N2CCOCC2)c2cc(-c3cccnc3-c3ccccc3)ccc21` [Example 279, 1-ethyl-4-(morpholin-4-yl)-6-(2-phenylpyridin-3-yl)quinolin-2(1H)-one]: the inhibition at 0.3 µM on BRD4 BD1 stood at 93%; at BRD2 BD1, 91%; on BRD3 BD1, 93%; at BRD4 BD2, 89%; at BRD2 BD2 it was 88%; at BRD3 BD2, 91%.
Regarding `CCn1c(=O)cc(C2CC2)c2cc(N3C(=O)C(C)C(=O)N3c3ccccc3)ccc21` (stereo not drawn) [Example 280, 1-(4-cyclopropyl-1-ethyl-2-oxo-1,2-dihydroquinolin-6-yl)-4-methyl-2-phenylpyrazolidine-3,5-dione], the inhibition at 0.3 µM on BRD4 BD1 is 93%; on BRD2 BD1, 83%; on BRD3 BD1, 90%; on BRD4 BD2, 90%; at BRD2 BD2, 88%; on BRD3 BD2, 92%.
For the compound `CCC1C(=O)N(c2ccccc2)N(c2ccc3c(c2)c(C2CC2)cc(=O)n3CC)C1=O` (stereo not drawn) [Example 281, 1-(4-cyclopropyl-1-ethyl-2-oxo-1,2-dihydroquinolin-6-yl)-4-ethyl-2-phenylpyrazolidine-3,5-dione], the inhibition at 0.3 µM on BRD4 BD1 is 94%; on BRD2 BD1 it was 87%; at BRD3 BD1 it was 92%; at BRD4 BD2, 88%; on BRD2 BD2, 89%; on BRD3 BD2, 91%.
With `CCn1c(=O)cc(C2CC2)c2cc(-n3c(=O)cc(C)n3-c3ccccc3)ccc21` [Example 282a, 4-Cyclopropyl-1-ethyl-6-(3-methyl-5-oxo-2-phenyl-2,5-dihydro-1H-pyrazol-1-y 1)quinolin-2(1H)-one], the “Binding inhibition percentage BRD4 BD1” value on BRD4 BD1 was found to be 95%. Moreover, on BRD2 BD1, the “Binding inhibition percentage BRD2 BD1” value is on record as 94%. Further, the “Binding inhibition percentage BRD3 BD1” value on BRD3 BD1 is listed as 94%. Also, the “Binding inhibition percentage BRD4 BD2” value on BRD4 BD2 worked out at 89%. Moreover, at BRD2 BD2, the “Binding inhibition percentage BRD2 BD2” value is listed as 90%. Moreover, at BRD3 BD2, the “Binding inhibition percentage BRD3 BD2” value came to 91%.
On to `CCn1c(=O)cc(C2CC2)c2cc(-n3c(C)cc(=O)n3-c3ccccc3)ccc21` [Example 282b, 4-Cyclopropyl-1-ethyl-6-(5-methyl-3-oxo-2-phenyl-2,3-dihydro-1H-pyrazol-1-yl)quinolin-2(1H)-one], for which the inhibition at 0.3 µM on BRD4 BD1 stood at 91%; on BRD2 BD1, 71%; on BRD3 BD1, 89%; at BRD4 BD2, 87%; at BRD2 BD2, 88%; on BRD3 BD2, 92%.
Regarding `CCn1c(=O)cc(C2CC2)c2cc(-c3nc(C)[nH]c3-c3ccccc3)ccc21` [Example 283, 4-cyclopropyl-1-ethyl-6-(2-methyl-5-phenyl-1H-imidazol-4-yl)quinolin-2(1H)-one], the inhibition at 0.3 µM at BRD4 BD1 is 90%; on BRD2 BD1, 68%; on BRD3 BD1 it was 87%; on BRD4 BD2, 87%; at BRD2 BD2, 86%; at BRD3 BD2, 92%.
`CCn1c(=O)cc(C2CC2)c2cc(-c3nccnc3-c3ccccc3)ccc21` [Example 284, 4-cyclopropyl-1-ethyl-6-(3-phenylpyrazin-2-yl)quinolin-2(1H)-one]: the inhibition at 0.3 µM was found to be 93% on BRD4 BD1; 83% at BRD2 BD1; 93% on BRD3 BD1; 89% at BRD4 BD2; 88% on BRD2 BD2; 92% at BRD3 BD2.
